From US9902696B2, “1,4-substituted piperidine derivatives” (Cephalon, Inc., priority 2015, dated 2018)
Counter-ions that a name gives are not always drawn.

target: T1, recombinant human baculovirus-expressed GST-tagged FASN (Homo sapiens, UniProt P49327); assay: FASN enzyme activity assay, fluorescence-based detection of CoA with CPM; assay type: biochemical; settings: 5 nM FASN, 150 μM NADPH, 10 μM acetyl-CoA, 25 μM malonyl-CoA, 90 minutes incubation; read-out: IC50 data for Additional Compounds of Formulae I-V(a): Activity
T1 construct: GST
Procedure, shortened: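 CoA product reacted with thiol-reactive CPM (diluted to 50 μM in 70% ethanol), read at 390/530 nm after 30 min. Preceding reaction: 90 min, 5 nM recombinant GST-FASN, 150 μM NADPH, 10 μM acetyl-CoA, 25 μM malonyl-CoA, pH 7.5 HEPES, 0.5% DMSO. IC50s fitted by nonlinear sigmoidal regression.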

T1 sequence (P49327 whole entry): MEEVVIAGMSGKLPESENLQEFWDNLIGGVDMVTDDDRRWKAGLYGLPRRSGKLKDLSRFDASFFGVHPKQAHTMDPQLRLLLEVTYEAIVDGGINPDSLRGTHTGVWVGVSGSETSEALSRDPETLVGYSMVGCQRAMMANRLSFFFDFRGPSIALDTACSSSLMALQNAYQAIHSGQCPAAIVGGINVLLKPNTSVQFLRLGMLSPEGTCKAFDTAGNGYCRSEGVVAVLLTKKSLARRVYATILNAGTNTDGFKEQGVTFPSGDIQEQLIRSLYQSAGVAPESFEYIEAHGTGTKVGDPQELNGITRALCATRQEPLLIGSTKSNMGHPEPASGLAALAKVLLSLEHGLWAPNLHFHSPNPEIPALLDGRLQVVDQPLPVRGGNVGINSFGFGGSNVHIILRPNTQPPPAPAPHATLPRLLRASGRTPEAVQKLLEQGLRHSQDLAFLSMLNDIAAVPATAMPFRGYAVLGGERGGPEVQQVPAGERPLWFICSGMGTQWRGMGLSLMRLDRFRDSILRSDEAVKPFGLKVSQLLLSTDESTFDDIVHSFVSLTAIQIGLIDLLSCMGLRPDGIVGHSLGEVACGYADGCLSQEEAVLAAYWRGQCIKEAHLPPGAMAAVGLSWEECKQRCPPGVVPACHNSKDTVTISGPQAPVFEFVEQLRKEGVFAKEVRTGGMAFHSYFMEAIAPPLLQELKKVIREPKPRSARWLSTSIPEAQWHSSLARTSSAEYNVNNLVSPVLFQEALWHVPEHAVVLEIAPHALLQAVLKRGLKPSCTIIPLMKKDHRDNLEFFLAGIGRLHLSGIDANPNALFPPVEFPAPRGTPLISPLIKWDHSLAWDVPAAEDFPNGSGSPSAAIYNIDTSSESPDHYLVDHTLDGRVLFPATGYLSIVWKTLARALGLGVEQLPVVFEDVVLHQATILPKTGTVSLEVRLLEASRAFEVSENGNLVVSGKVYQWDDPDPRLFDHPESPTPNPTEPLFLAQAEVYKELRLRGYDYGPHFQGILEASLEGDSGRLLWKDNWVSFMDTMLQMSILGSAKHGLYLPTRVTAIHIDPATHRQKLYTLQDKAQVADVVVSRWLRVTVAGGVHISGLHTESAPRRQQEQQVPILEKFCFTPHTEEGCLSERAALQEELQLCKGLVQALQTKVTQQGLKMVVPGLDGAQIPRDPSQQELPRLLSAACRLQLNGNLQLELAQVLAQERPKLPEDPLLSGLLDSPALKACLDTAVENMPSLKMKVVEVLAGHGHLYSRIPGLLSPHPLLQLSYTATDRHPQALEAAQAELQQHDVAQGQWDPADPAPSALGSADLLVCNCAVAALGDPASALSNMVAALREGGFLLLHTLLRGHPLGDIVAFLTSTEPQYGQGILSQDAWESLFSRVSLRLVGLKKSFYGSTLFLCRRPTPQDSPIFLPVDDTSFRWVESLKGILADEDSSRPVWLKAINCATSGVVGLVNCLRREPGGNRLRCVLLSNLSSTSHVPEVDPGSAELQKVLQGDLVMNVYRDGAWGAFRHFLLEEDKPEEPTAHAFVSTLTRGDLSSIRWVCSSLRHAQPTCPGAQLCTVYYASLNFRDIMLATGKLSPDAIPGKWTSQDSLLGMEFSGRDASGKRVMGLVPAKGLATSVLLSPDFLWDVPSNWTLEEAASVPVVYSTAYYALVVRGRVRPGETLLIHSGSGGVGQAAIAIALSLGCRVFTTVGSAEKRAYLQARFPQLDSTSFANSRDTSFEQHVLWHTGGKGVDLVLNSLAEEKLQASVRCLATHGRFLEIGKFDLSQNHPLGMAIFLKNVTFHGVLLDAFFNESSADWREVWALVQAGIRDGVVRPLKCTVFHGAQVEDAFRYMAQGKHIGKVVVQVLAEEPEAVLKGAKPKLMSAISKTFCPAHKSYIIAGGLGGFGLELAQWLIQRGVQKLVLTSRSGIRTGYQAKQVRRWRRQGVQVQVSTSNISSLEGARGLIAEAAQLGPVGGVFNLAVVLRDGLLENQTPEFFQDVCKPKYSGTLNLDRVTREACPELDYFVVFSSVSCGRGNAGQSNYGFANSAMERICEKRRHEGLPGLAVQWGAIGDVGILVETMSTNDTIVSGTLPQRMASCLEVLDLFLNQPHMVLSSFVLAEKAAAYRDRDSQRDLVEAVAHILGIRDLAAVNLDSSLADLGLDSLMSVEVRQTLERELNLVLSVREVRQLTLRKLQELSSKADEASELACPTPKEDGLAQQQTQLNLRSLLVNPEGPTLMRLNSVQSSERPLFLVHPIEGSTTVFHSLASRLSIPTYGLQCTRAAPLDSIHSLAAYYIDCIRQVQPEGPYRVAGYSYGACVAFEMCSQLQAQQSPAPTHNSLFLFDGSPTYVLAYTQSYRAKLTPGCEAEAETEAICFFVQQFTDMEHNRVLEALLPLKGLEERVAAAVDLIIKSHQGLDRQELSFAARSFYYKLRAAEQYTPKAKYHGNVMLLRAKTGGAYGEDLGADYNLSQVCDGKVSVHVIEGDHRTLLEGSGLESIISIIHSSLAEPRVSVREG

Compound	IC50
Cc1c(-c2ccc(OC3CCN(C(=O)OC4CCC4)CC3)cc2)ccc2cccnc12 [Example 561, Cyclobutyl 4-[4-(8-methyl-7-quinolyl)phenoxy]piperidine-1-carboxylate]	1000 to 10000 nM
Cc1c(-c2ccc(OC3CCN(C(=O)CO)CC3)cc2)ccc2cccnc12 [Example 626, 2-Hydroxy-1-[4-[4-(8-methyl-7-quinolyl)phenoxy]-1-piperidyl]ethanone]	1 to 99 nM
Cc1c(-c2ccc(OC3CCN(C(=O)SC(C)C)CC3)cc2)ccc2cccnc12 [Example 618, S-Isopropyl 4-[4-(8-methyl-7-quinolyl)phenoxy]piperidine-1-carbothioate]	1000 to 10000 nM
Cc1c(-c2ccc(OC3CCN(C(=O)NO)CC3)cc2)ccc2nccn12 [Example 613, 4-[4-(5-Methylimidazo[1,2-a]pyridin-6-yl)phenoxy]piperidine-1-carbohydroxamic acid]	1000 to 10000 nM
Cc1c(-c2ccc(OC3CCN(C(=O)N4CCC(N5CCOCC5)CC4)CC3)cc2)ccc2cccnc12 [Example 534, [4-[4-(8-Methyl-7-quinolyl)phenoxy]-1-piperidyl]-(4-morpholino-1-piperidyl)methanone, HCl]	1000 to 10000 nM
CCCONC(=O)N1CCC(Oc2ccc(-c3ccc4nccn4c3Cl)cc2)CC1 [Example 576, 4-[4-(5-Chloroimidazo[1,2-a]pyridin-6-yl)phenoxy]-N-propoxy-piperidine-1-carboxamide]	1000 to 10000 nM
CCCNC(=O)N1CCC(Oc2ccc(-c3ccc4nccn4c3C)cc2)CC1 [Example 594, 4-[4-(5-Methylimidazo[1,2-a]pyridin-6-yl)phenoxy]-N-propyl-piperidine-1-carboxamide]	1 to 99 nM
Cc1c(-c2ccc(OC3CCN(C(=O)NOC(C)C)CC3)cc2)ccc2cccnc12 [Example 543, N-Isopropoxy-4-[4-(8-methyl-7-quinolyl)phenoxy]piperidine-1-carboxamide]	1000 to 10000 nM

same assay, conditions: 5 nM FASN, 150 μM NADPH, 10 μM acetyl-CoA, 25 μM malonyl-CoA, 90 minutes incubation; read-out: IC50 data for Compounds of Formulae I-V/V(a): Activity

Compound	IC50
Cc1c(-c2ccc(OC3CCN(C(=O)[C@H]4CC4(C)C)CC3)cc2)ccc2cccnc12 [Example 321, ((S)-2,2-Dimethylcyclopropyl)-{4-[4-(8-methyl-quinolin-7-yl)-phenoxy]-piperidin-1-yl}-methanone]	100 to 999 nM
CO[C@H](C)C(=O)N1CCC(Oc2ccc(-c3cnc4ccccc4c3)cc2)CC1 [Example 108, (R)-2-Methoxy-1-[4-(4-quinolin-3-yl-phenoxy)-piperidin-1-yl]-propan-1-one, 2HCl]	100 to 999 nM
O=C([C@H]1CCCO1)N1CCC(Oc2ccc(-c3cnc4ccccc4n3)cc2)CC1 [Example 68, [4-(4-Quinoxalin-2-yl-phenoxy)-piperidin-1-yl]-(R)-tetrahydrofuran-2-yl-methanone]	1 to 99 nM
CN(C)c1c(-c2ccc(OC3CCN(C(=O)C4CC4)CC3)cc2)ccc2cccnc12 [Example 333, Cyclopropyl-{4-[4-(8-dimethylamino-quinolin-7-yl)-phenoxy]-piperidin-1-yl}-methanone]	1000 to 10000 nM
CCC(=O)N1CCC(Oc2ccc(-c3ccc(Cl)c(Cl)c3)cc2)CC1 [Example 500, 1-[4-(3′,4′-Dichlorobiphenyl-4-yloxy)-piperidin-1-yl]-propan-1-one]	1000 to 10000 nM
O=C(C1CCOC1)N1CCC(Oc2ccc(-c3cnc4ccccc4c3)cc2)CC1 (stereo not shown) [Example 107, [4-(4-Quinolin-3-yl-phenoxyl)-piperidin-1-yl]-(tetrahydrofuran-3-yl)-methanone, 2HCl]	1000 to 10000 nM
Cc1cc(-c2cnc3ccccc3c2)ccc1OC1CCN(C(=O)C(C)C)CC1 [Example 213, 2-Methyl-1-[4-(2-methyl-4-quinolin-3-yl-phenoxy)-piperidin-1-yl]-propan-1-one]	1000 to 10000 nM
CCC(=O)N1CCC(Oc2ccc(-c3ccc4cccnc4c3OCCN3CCOCC3)cc2)CC1 [Example 171, 1-(4-{4-[8-(2-Morpholin-4-yl-ethoxy)-quinolin-7-yl]-phenoxy}-piperidin-1-yl)-propan-1-one, 2HCl]	1000 to 10000 nM
CCC(=O)N1CCC(Oc2ccc(-c3ccc4ccccc4c3)cc2)CC1 [Example 10, 1-[4-(4-Naphthalen-2-yl-phenoxy)-piperidin-1-yl]-propan-1-one]	1 to 99 nM
Cc1c(-c2ccc(OC3CCN(C(=O)C4CC4)CC3)cc2)ccc2nccn12 [Example 287, Cyclopropyl-{4-[4-(5-methyl-imidazo[1,2-a]pyridin-6-yl)-phenoxy]-piperidin-1-yl}-methanone]	100 to 999 nM
O=C([C@H]1CCCO1)N1CCC(Oc2ccc(-c3ccc4scnc4c3)cc2)CC1 [Example 267, [4-(4-Benzothiazol-5-yl-phenoxy)-piperidin-1-yl]-(R)-tetrahydrofuran-2-yl-methanone, TFA salt]	1 to 99 nM
CCC(=O)N1CCC(Oc2ccc(-c3c(C)ccc4ncccc34)cc2)CC1 [Example 350, 1-(4-(4-(6-Methylquinolin-5-yl)phenoxy)piperidin-1-yl)propan-1-one HCl]	100 to 999 nM
CNc1c(-c2ccc(OC3CCN(C(=O)[C@H]4CCCO4)CC3)cc2)ccc2cccnc12 [Example 325, {4-[4-(8-Methylaminoquinolin-7-yl)-phenoxy]-piperidin-1-yl}-(R)-tetrahydrofuran-2-yl-methanone]	1 to 99 nM
Cc1c(-c2ccc(OC3CCN(C(=O)N4CCCCC4)CC3)cc2)ccc2cccnc12 [Example 98, [4-[4-(8-methyl-7-quinolyl)phenoxy]-1-piperidyl]-(1-piperidyl)methanone]	1 to 99 nM
CCC(=O)N1CCC(Oc2ccc(-c3ccc4cccnc4c3C)cc2)CC1 [Example 36]	1 to 99 nM
Cc1c(-c2ccc(OC3CCN(C(=O)C4CC4)CC3)cc2)cccc1-c1ccccn1 [Example 407, Cyclopropyl-[4-(2′-methyl-3′-pyridin-2-yl-biphenyl-4-yloxy)-piperidin-1-yl]-methanone, TFA salt]	1000 to 10000 nM

Compound	IC50
O=C([C@H]1CCCO1)N1CCC(Oc2ccc(-c3ccc4c(Cl)ccnc4c3)cc2)CC1 [Example 257, {4-[4-(4-Chloroquinolin-7-yl)-phenoxy]-piperidin-1-yl}-(R)-tetrahydro-furan-2-yl-methanone, TFA salt]	1 to 99 nM
CNc1nccc2cc(-c3ccc(OC4CCN(C(=O)[C@H]5CCCO5)CC4)cc3)ccc12 [Example 456, {4-[4-(1-Methylaminoisoquinolin-6-yl)-phenoxy]-piperidin-1-yl}-(R)-tetrahydrofuran-2-yl-methanone]	1 to 99 nM
CO[C@@H](C)C(=O)N1CCC(Oc2ccc(-c3cnc4ccccc4c3)cc2)CC1 [Example 109, (S)-2-Methoxy-1-[4-(4-quinolin-3-yl-phenoxy)-piperidin-1-yl]-propan-1-one, 2HCl]	1000 to 10000 nM
O=C1COC(C(=O)N2CCC(Oc3ccc(-c4cnc5ccccc5c4)cc3)CC2)C1 (stereo not shown) [Example 166, 5-[4-(4-Quinolin-3-yl-phenoxy)-piperidine-1-carbonyl]dihydrofuran-3-one]	1000 to 10000 nM
CCC(=O)N1CCC(Oc2ccc(-c3ccc4cccnc4c3OCCN3CCCC3)cc2)CC1 [Example 173, 1-(4-{4-[8-(2-Pyrrolidin-1-yl-ethoxy)-quinolin-7-yl]-phenoxy}-piperidin-1-yl)-propan-1-one, HCl]	1000 to 10000 nM
CCC(=O)N1CCC(Oc2ccc(-c3c[nH]c4ccccc34)cc2)CC1 [Example 246, 1-{4-[4-(1H-Indol-3-yl)-phenoxy]-piperidin-1-yl}-propan-1-one]	1000 to 10000 nM
COc1nccc2cc(-c3ccc(OC4CCN(C(=O)C5CC5)CC4)cc3)ccc12 [Example 435, Cyclopropyl-{4-[4-(1-methoxyisoquinolin-6-yl)-phenoxy]-piperidin-1-yl}-methanone]	100 to 999 nM
O=C(C1CC1)N1CCC(Oc2ccc(-c3ccc(Nc4ccccc4)nc3)cc2)CC1 [Example 393, Cyclopropyl-{4-[4-(6-phenylaminopyridin-3-yl)-phenoxy]-piperidin-1-yl}-methanone, TFA salt]	1000 to 10000 nM
CCC(=O)N1CCC(Oc2ccc(-c3ccc4c(C)nccc4c3)cc2)CC1 [Example 425, 1-{4-[4-(1-Methylisoquinolin-6-yl)-phenoxy]-piperidin-1-yl}-propan-1-one]	1 to 99 nM
O=C(C1CC1)N1CCC(Oc2cccc(-c3cnc4ccccc4c3)c2)CC1 [Example 497, Cyclopropyl-[4-(3-quinolin-3-yl-phenoxy)-piperidin-1-yl]-methanone]	1000 to 10000 nM
Cc1cc(-c2ccc(OC3CCN(C(=O)[C@H]4CCCO4)CC3)cc2)cn2ccnc12 [Example 283, {4-[4-(8-Methylimidazo[1,2-a]pyridin-6-yl)-phenoxy]-piperidin-1-yl}-(R)-tetrahydrofuran-2-yl-methanone]	1 to 99 nM
Cc1c(-c2ccc(OC3CCN(C(=O)N(C)C)CC3)cc2)ccc2cccnc12 [Example 89, N,N-dimethyl-4-[4-(8-methyl-7-quinolyl)phenoxy]piperidine-1-carboxamide]	1 to 99 nM
O=C(C1CC1)N1CCC(Oc2ccc(-c3ccc4scnc4c3)cc2)CC1 [Example 268, [4-(4-Benzothiazol-5-yl-phenoxy)-piperidin-1-yl]-cyclopropylmethanone, TFA salt]	1000 to 10000 nM
O=C(c1ccsn1)N1CCC(Oc2ccc(-c3cnc4ccccc4c3)cc2)CC1 [Example 125, Isothiazol-3-yl-[4-(4-quinolin-3-yl-phenoxy)-piperidin-1-yl]-methanone, HCl]	1000 to 10000 nM
CCC(=O)N1CCC(Oc2ccc(-c3ccc4cccnc4c3)cc2)CC1 [Example 4, 1-[4-(4-Quinolin-7-yl-phenoxy)-piperidin-1-yl]-propan-1-one]	1 to 99 nM
CCc1nccc2cc(-c3ccc(OC4CCN(C(=O)[C@H]5CCCO5)CC4)cc3)ccc12 [Example 438, {4-[4-(1-Ethylisoquinolin-6-yl)-phenoxy]-piperidin-1-yl}-(R)-tetrahydro-furan-2-yl-methanone, HCl]	1 to 99 nM
